Measurements from PubChem BioAssay AID1918952 (Molecular Pharmacology Branch, DTP, NCI, 2023).
“And” between values parts separate entries of the source, which are not always exact repeats. Identical values can stand only once.

Tested on: LG0703-F948-PDC complex spheroid viability
Experiment: Anticancer human tumor LG0703-F948-PDC patient-derived lung adenocarcinoma cell line growth inhibition
Settings: for viability, T/C: stronger effect = lower value
From the text: Multicellular complex tumor spheroid response to LSD1 Inhibitor Iadademstat in combination with a variety of drugs and investigational agents in selected tumor cell lines
The current study was undertaken to assess response to LSD1 inhibitors in combination with standard-of-care drugs and investigational agents in solid tumor complex spheroid models as well as in the K-562 leukemia. Complex spheroids include a stromal component modeled by human endothelial cells (HUVEC) and fibroblasts modeled by human mesenchymal stem cells (MSCs). The concentration ranges selected for each drug and investigational agent were based upon clinically achievable concentrations if the clinical Cmax of the agent was known.
Compounds. The drugs and investigational agents used in this study are listed on Table 1. All of the agents used, including staurosporine (NSC755774) and gemcitabine (NSC613327), were obtained from the Developmental Therapeutics Program, NCI. FDA-approved anticancer drugs are available from the NCI at http://dtp.nci.nih.gov/branches/dscb/oncology_drugset_explanation.html. Drugs and investigational agents were >95% pure by proton nuclear magnetic resonance (NMR) and liquid chromatography/mass spectrometry (LC/MS). Stock solutions were prepared at 400x in DMSO, stored at -70 degrees C, and diluted in fresh medium prior to their use. The final concentration of DMSO in cell culture wells never exceeded 0.25% (v/v). The FDA-approved anticancer drug set is available from the Developmental Therapeutics Program at https://dtp.cancer.gov/organization/dscb/obtaining/available_plates.htm. All drugs and investigational agents were tested over a range starting from a high concentration at or near the clinical Cmax and decreasing in half-log increments. If the clinical Cmax for an agent had not been determined, the highest concentration tested was 10 microM.
Cell Lines. The patient-derived cancer cell (PDC) lines: 292921-168-R-J2-PDC, K24384-001-R-PDC, and 521955-158-R2-J5-PDC pancreatic carcinomas, 556581-035-R-J1 ovarian carcinoma, 324938-238-R-J1-PDC, 855422-203-R-J1-PDC and 883617-216-R-J1-PDC urothelial bladder carcinomas, 743489-274-T-PDC renal cell carcinoma, 138582-R-J1 Merkel cell tumor, K60290-347-R-J1 and K57222-313-R-J1-PDC glioblastomas, 653999-131-R-J2-PDC, LG0703-F948-PDC, and 349418-098-R-PDC non-small cell lung carcinomas, 885512-296-R-J2-PDC, 171881-019-R-J1-PDC breast carcinomas and 186277-243-T-J2-PDC and 233499-124-R-J2-PDC colon carcinomas were obtained from the NCI Patient-Derived Models Repository (PDMR, https://pdmr.cancer.gov). The established cell lines NCI/ADR-RES (RRID:CVCL_14520 and OVCAR-5 (RRID:CVCL_1628) ovarian carcinomas, 786-O (RRID:CVCL_1051) and A498 (RRID:CVCL_A498) renal cell carcinoma, NCI-H211 (ATCC, cat. CRL-5824; RRID:CVCL_1529), NCI-H196 (ATCC, cat. CRL-5823, RRID:CVCL_1509), SW 1271 (ATCC, cat. CRL-2177, RRID:CVCL_1716) and NCI-H1876 (ATCC, cat. CRL-5902, RRID:CVCL_1503) small cell lung carcinomas, MDA-MB-231 (RRID:CVCL_0062) and MDA-MB-468 (RRID:CVCL_0419)breast carcinomas (10-12). Pooled donor human umbilical vein endothelial cells (HUVEC, Lonza, cat. CC-2519) and human mesenchymal stem cells (hMSC, Lonza, cat. PT-2501) were purchased from Lonza (Walkersville, MD).
Cell Culture. All cells were maintained in an incubator at 37 degrees C and 5% CO2 with 95% humidity. The PDC lines were cultured according to standard operating procedures established by the NCI PDMR (https://pdmr.cancer.gov). Briefly all PDCs were thawed and cultured in Matrigel-coated flasks prepared with a working solution of 1X Ham's F-12 nutrient mix, without supplementation (Invitrogen, Waltham, MA, cat. 11765054), 100 U/mL penicillin-streptomycin (Invitrogen, cat. 15140122), and 2.5% Matrigel (Corning Inc., Corning, NY, cat. 354248) for the first three passages. […]
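Note: spheroids exposed to agents for seven days before readout.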
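Throughout, for viability, T/C: 100% = DMSO vehicle control wells as normalization base.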

Row | SMILES | IC50 (curve of compound) | viability, T/C (compound 0.0316 µM) | viability, T/C (compound 0.1 µM) | viability, T/C (compound 0.316 µM) | viability, T/C (compound 1 µM) | viability, T/C (compound 0.00949 µM) | viability, T/C (compound 0.03 µM) | viability, T/C (compound 0.0949 µM) | viability, T/C (compound 0.3 µM) | also measured
1 | NC1CC1c1ccc(-c2cccc(O)c2)cc1 (stereo not given) |  |  | 94.9% and 98.4% |  |  |  |  |  |  | viability, T/C (compound 3.16 µM): 99.9% [middle of 24 runs]; IC50 (compound alone, run of 02/21/2022): > 10000 nM
2 | NC1CCC(NC2CC2c2ccccc2)CC1 (stereo not given) |  |  |  | 99.4% and 101% and 110% |  |  |  |  |  | IC50 (compound alone, run of 02/15/2022): > 10000 nM
3 | Nc1ccccc1NC(=O)c1ccc(CNC(=O)OCc2cccnc2)cc1 | 151 nM and 132 nM |  |  |  |  | 100% and 75.3% | 101% and 76.5% | 68.7% and 63.2% | 21.4% and 17.3% | viability, T/C (compound 0.949 µM): 1.46% and 1.45%; viability, T/C (compound 3 µM): 0.48% and 0.84%
4 | Nc1ccn(C2OC(CO)C(O)C2(F)F)c(=O)n1 (stereo not given) | 2.05 nM and 1.79 nM |  |  |  |  | 35.1% and 35% | 37.9% and 33.9% | 36.3% and 30.8% | 32.1% and 25.6% | viability, T/C (compound 0.000949 µM): 64.8% and 61.2%; viability, T/C (compound 0.003 µM): 42.9% and 39.4%
5 | Nc1ncn(C2CC(O)C(CO)O2)c(=O)n1 (stereo not given) | > 1000 nM | 88.3% and 95.8% | 91.7% and 91.4% | 83.5% and 92.4% | 79.6% and 91.2% |  |  |  |  | viability, T/C (compound 0.00316 µM): 85% and 110%; viability, T/C (compound 0.01 µM): 101% and 104%
6 | Nc1ncn(C2CC(O)C(CO)S2)c(=O)n1 (stereo not given) | > 300 nM |  |  |  |  | 95.8% and 96.4% | 112% and 99.8% | 111% and 96.1% | 84.7% and 78.1% | viability, T/C (compound 0.000949 µM): 91.3% and 115%; viability, T/C (compound 0.003 µM): 118% and 98.8%
7 | O=C(C=Cc1cccc(S(=O)(=O)Nc2ccccc2)c1)NO | 83.8 nM and 82.8 nM |  |  |  |  | 94.2% and 95.1% | 90.9% and 90.4% | 43.7% and 43.1% | 11.7% and 12.1% | viability, T/C (compound 0.949 µM): 1.64% and 1.58%; viability, T/C (compound 3 µM): 0.25% and 0.32%
8 | O=C(C=Cn1cnc(-c2cc(C(F)(F)F)cc(C(F)(F)F)c2)n1)NNc1cnccn1 | 8.72 nM and 8.71 nM | 43.6% and 42.3% | 38% and 35.1% | 35.2% and 29.4% | 30.5% and 24.9% |  |  |  |  | viability, T/C (compound 0.00316 µM): 53.4% and 53.9%; viability, T/C (compound 0.01 µM): 51.9% and 52.1%

Continued, in another order:

Row | IC50 (curve of compound) | SMILES | viability, T/C (compound 0.0316 µM) | viability, T/C (compound 0.1 µM) | viability, T/C (compound 0.316 µM) | viability, T/C (compound 1 µM) | viability, T/C (compound 0.00949 µM) | viability, T/C (compound 0.03 µM) | viability, T/C (compound 0.0949 µM) | viability, T/C (compound 0.3 µM) | also measured
9 | 1400 nM and 1380 nM | COc1ccc([C@@H](O)c2cc(-c3ncnc4cc(N5CCOCC5)ccc34)c(F)cc2Cl)nn1 | 96.8% and 94.9% | 95.5% and 89% | 83.9% and 78.1% | 64.1% and 62.8% |  |  |  |  | viability, T/C (compound 3.16 µM): 20.1% and 24%; viability, T/C (compound 10 µM): 3.89% and 4.14%
10 | > 100 nM | Cn1ncnc1C1c2n[nH]c(=O)c3cc(F)cc(c23)NC1c1ccc(F)cc1 (stereo not given) | 93.5% and 93.3% | 79.6% and 91.1% |  |  |  |  |  |  | viability, T/C (compound 0.000316 µM): 97.7% and 106%; viability, T/C (compound 0.001 µM): 104% and 106%; viability, T/C (compound 0.00316 µM): 87.8% and 95.8%; viability, T/C (compound 0.01 µM): 93.7% and 109%
11 | 590 nM and 545 nM | NS(=O)(=O)OCC1CC(n2ccc3c(NC4CCc5ccccc54)ncnc32)CC1O (stereo not given) |  |  |  |  | 103% and 93.6% | 110% and 98.5% | 102% and 92.3% | 74% and 62.3% | viability, T/C (compound 0.949 µM): 33.3% and 38.5%; viability, T/C (compound 3 µM): 15.6% and 20.2%
12 | > 10000 nM | O=C(c1cc(Cc2n[nH]c(=O)c3ccccc23)ccc1F)N1CCN(C(=O)C2CC2)CC1 | 84.5% and 107% | 97.1% and 103% | 86.5% and 98.2% | 93.8% and 106% |  |  |  |  | viability, T/C (compound 3.16 µM): 85.7% and 85.5%; viability, T/C (compound 10 µM): 65.5% and 74.2%
